This note sets out measurements from ChEMBL document CHEMBL5356935, “Discovery of rigid biphenyl Plasmodium falciparum DHFR inhibitors using a fragment linking strategy” (RSC Med Chem, 2023).

Converted amounts (≈) assume the structure as drawn. The source made the active and inactive calls. The calls are words filed in the database; no cut-off is given here.

The target in data set [1] is Bifunctional dihydrofolate reductase-thymidylate synthase (Plasmodium falciparum K1) (UniProt P13922). As to the kind of experiment: Binding affinity to Plasmodium falciparum DHFR assessed as binding constant (kon) by surface plasmon resonance analysis.
Data set [2] relates to Plasmodium falciparum. Description: Inhibition of Plasmodium falciparum DHFR N51I/C59R/S108N/I164L quadruple mutant using DHF as substrate at 500 uM in presence of NADPH by UV-Vis spectrometry analysis relative to control.
Data set [3] concerns the target Bifunctional dihydrofolate reductase-thymidylate synthase (Plasmodium falciparum K1) (UniProt P13922). Description: Inhibition of wild type Plasmodium falciparum DHFR using DHF as substrate at 500 uM in presence of NADPH by UV-Vis spectrometry analysis.
In data set [4] the test system is Plasmodium falciparum. Description: Binding affinity to Plasmodium falciparum apo-DHFR N51I/C59R/S108N/I164L quadruple mutant assessed as change in melting temperature by […] analysis.
Data set [5] has as its target T1, Dihydrofolate reductase (Homo sapiens) (UniProt P00374).
T1 sequence (whole entry): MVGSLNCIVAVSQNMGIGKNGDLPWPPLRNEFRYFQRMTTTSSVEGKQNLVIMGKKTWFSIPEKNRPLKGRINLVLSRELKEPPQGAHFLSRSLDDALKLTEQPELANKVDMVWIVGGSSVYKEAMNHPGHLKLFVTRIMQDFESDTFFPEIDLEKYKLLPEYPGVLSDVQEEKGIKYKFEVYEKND
Description: Inhibition of human DHFR at 500 uM by UV-Vis spectrometry analysis.

For data set [6], the target named is Bifunctional dihydrofolate reductase-thymidylate synthase (Plasmodium falciparum K1) (UniProt P13922). Description: Binding affinity to Plasmodium falciparum DHFR assessed as binding constant (koff) by surface plasmon resonance analysis.
The subject of data set [7] is Plasmodium falciparum. As to the kind of experiment: Binding affinity to Plasmodium falciparum DHFR N51I/C59R/S108N/I164L quadruple mutant assessed as change in melting temperature in presence of NADPH by […] analysis.
For data set [8], the target named is Bifunctional dihydrofolate reductase-thymidylate synthase (Plasmodium falciparum K1) (UniProt P13922). Description: Inhibition of wild type Plasmodium falciparum DHFR using DHF as substrate at 500 uM in presence of NADPH by UV-Vis spectrometry analysis relative to control.
Data set [9] is described as follows: Half life in human. It is filed as ADME.
For the next data set, the target named is T2, Dihydrofolate reductase (Homo sapiens, UniProt P00374).
T2 sequence (P00374 whole entry): T1 sequence (whole entry)
Description: Inhibition of human DHFR using DHF as substrate assessed as inhibition constant in presence of NADPH by UV-Vis spectrometry analysis.

Data set [10] is described as follows: Kinetic solubility of the compound at pH 7.4 at 200 uM incubated for 2 hrs under shaking condition by HPLC analysis. The note with it: buffer, read-out: Kinetic_solubility. The class given is physicochemical.
Data set [11] can be described thus: Cytotoxicity against African green monkey Vero cells assessed as cell growth inhibition incubated for 72 hrs by sulforhodamine B assay. The class given is toxicity, cell-based, Chlorocebus sabaeus.
Data set [12] is described as follows: Kinetic solubility of the compound at pH 4.5 at 200 uM incubated for 2 hrs under shaking condition by HPLC analysis. It is filed as physicochemical. To be noted: buffer, read-out: Kinetic_solubility.
Data set [13] is described as follows: Distribution coefficient, log D of compound in n-octanol and saturated PBS at pH 7.4 at 100 uM incubated for 2 hrs under shaking condition by HPLC analysis. The class given is physicochemical.
A short description of data set [14]: Metabolic stability in human liver microsomes assessed as intrinsic clearance measured upto 60 mins in presence of NADPH by LC-MS/MS analysis. The class given is ADME, Microsome. To be noted: read-out: CLH.
Data set [15] is described as follows: Kinetic solubility of the compound at pH 2.0 at 200 uM incubated for 2 hrs under shaking condition by HPLC analysis. It is filed as physicochemical. The note with it: buffer, read-out: Kinetic_solubility.
The nature of data set [16]: Kinetic solubility of the compound at pH 6.5 at 200 uM incubated for 2 hrs under shaking condition by HPLC analysis. The class given is physicochemical. The note with it: buffer, read-out: Kinetic_solubility.
Data set [17] relates to Plasmodium falciparum. As to the kind of experiment: Antiplasmodial activity against PYR-resistant Plasmodium falciparum V1/S encoding QM DHFR infected in human erythrocytes assessed as inhibition of parasite growth by [3H]-hypoxanthine incorporation assay. The class given is functional, organism-based. The note with it: Erythrocyte.
Data set [18] in a line: Inhibition of Plasmodium falciparum DHFR N51I/C59R/S108N/I164L quadruple mutant using DHF as substrate assessed as inhibition constant in presence of NADPH by UV-Vis spectrometry analysis.
Data set [19] in a line: Metabolic stability in rat liver microsomes assessed as intrinsic clearance measured upto 60 mins in presence of NADPH by LC-MS/MS analysis. The note with it: read-out: CLH. The class given is ADME, Microsome.
The test system of data set [20] is Plasmodium falciparum. As to the kind of experiment: Antiplasmodial activity against PYR-sensitive Plasmodium falciparum TM4/8.2 encoding WT DHFR infected in human erythrocytes assessed as inhibition of parasite growth by [3H]-hypoxanthine incorporation assay. The class given is functional, organism-based. To be noted: TM4/8.2, Erythrocyte.
In data set [21] the target is Bifunctional dihydrofolate reductase-thymidylate synthase (Plasmodium falciparum K1) (UniProt P13922). As to the kind of experiment: Binding affinity to Plasmodium falciparum DHFR assessed as faster binding and release kinetics by surface plasmon resonance analysis.
The test system of data set [22] is Plasmodium falciparum. Description: Inhibition of Plasmodium falciparum DHFR N51I/C59R/S108N/I164L quadruple mutant assessed as fold change in inhibition in presence of 2,4-diamino-6-ethylpyrimidin-5-ol.

Sequence of Bifunctional dihydrofolate reductase-thymidylate synthase (Plasmodium falciparum K1) (P13922 whole entry, looked up): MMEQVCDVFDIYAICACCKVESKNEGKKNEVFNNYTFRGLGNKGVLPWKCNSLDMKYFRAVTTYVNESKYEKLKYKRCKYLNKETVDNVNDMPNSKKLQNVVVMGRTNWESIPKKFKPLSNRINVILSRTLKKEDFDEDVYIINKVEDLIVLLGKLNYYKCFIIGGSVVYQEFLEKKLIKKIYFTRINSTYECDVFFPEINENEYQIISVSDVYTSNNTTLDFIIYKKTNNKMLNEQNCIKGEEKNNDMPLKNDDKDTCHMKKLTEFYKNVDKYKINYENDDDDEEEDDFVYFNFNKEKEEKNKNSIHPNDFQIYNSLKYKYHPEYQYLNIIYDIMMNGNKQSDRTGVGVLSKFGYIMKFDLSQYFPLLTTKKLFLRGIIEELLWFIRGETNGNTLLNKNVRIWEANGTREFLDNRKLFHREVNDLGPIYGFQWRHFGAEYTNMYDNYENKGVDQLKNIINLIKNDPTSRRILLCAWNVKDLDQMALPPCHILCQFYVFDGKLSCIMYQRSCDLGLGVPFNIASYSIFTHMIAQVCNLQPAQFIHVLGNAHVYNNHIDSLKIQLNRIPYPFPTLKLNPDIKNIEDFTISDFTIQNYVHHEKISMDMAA

Consider `O=C(O)c1ccc(-c2ccccc2)cn1`, for which the K was determined as 24.5 M⁻¹ s⁻¹ in data set [1] and 0.037 s⁻¹ in data set [6]. Also, the inhibition in the data set on Plasmodium falciparum [2] was 7%. Besides, the inhibition entry in data set [3] and in [5] was “inactive” throughout. Moreover, the shift in melting temperature (ΔTm) with Plasmodium falciparum [4] is -1.2 °C.

Turning to `Cc1ccc(-c2ccc(C(=O)O)cc2)o1`, the K was 25.4 M⁻¹ s⁻¹ in data set [1] and 0.019 s⁻¹ in data set [6]. Besides, the results for the inhibition (in the data set with Plasmodium falciparum [2]; in [8]) were 23.1% and 27.4%, respectively. The inhibition entry in data set [5] was “inactive”. The ΔTm in the data set with Plasmodium falciparum [7] is -2.3 °C.

`O=C(O)c1cccc(-c2ccncc2)c1`: the K in data set [1] is 6.41 M⁻¹ s⁻¹. For the same compound, in the data set on Plasmodium falciparum [2], the inhibition was 19.5%. For the same compound, the inhibition entry in data set [3] and in [5] was “inactive” each time. Further, the thermal shift (ΔTm) with Plasmodium falciparum [7] was determined as 0.8 °C.

With `CCc1nc(N)nc(N)c1OCCCOc1ccccc1CCC(=O)O`, the half-life in data set [9] was less than 20 h. In addition, the Ki on Dihydrofolate reductase is 0.0174 µM; in data set [18], 0.00054 µM. In addition, the solubility kinetic at 2 h, 200 µM in data set [10] is 201 µM (≈ 72.5 µg/mL); in data set [12] it was 200 µM (≈ 72 µg/mL); in [15], 207 µM (≈ 74.6 µg/mL); in data set [16], 204 µM (≈ 73.5 µg/mL). The IC50 at 72 h in data set [11] is more than 100 µM. The compound further showed a pH-dependent lipophilicity (logD) at 2 h, 100 µM in data set [13] of -0.095. The microsomal CLint in data set [14] and in [19] was less than 3 µL/min/mg each time. Moreover, the results for the half-inhibitory concentration (IC50) in the data set with Plasmodium falciparum [17] and with Plasmodium falciparum [20] were 0.056 µM and 0.005 µM, respectively.

On to `O=C(O)c1ccc(-c2ccccc2F)o1`, for which the K in [1] came to 7.61 M⁻¹ s⁻¹; in [6], 0.001 s⁻¹. In addition, the inhibition in the data set on Plasmodium falciparum [2] was found to be 2.6%. Also, the inhibition result in data set [3] and in data set [5] was “inactive” in each case. Also, in the data set with Plasmodium falciparum [4], the ΔTm was -1.8 °C.

With `COc1cccc(-c2ccc(C(=O)O)cc2)c1`, the inhibition with Plasmodium falciparum [2] turned out to be 45.8%; in [8] it was 37.8%. Also, the result in data set [21] was Active. Besides, in data set [5], the inhibition entry was “inactive”. Besides, in the data set with Plasmodium falciparum [22], the fold change (FC) stood at 2.
